What was measured:
[1] = system: 2.5% DSS-induced inflammatory bowel disease animal model; experiment: Body weight change in DSS-induced inflammatory bowel disease mice; type: in vivo, C57BL/6N male mice; conditions: 5-ASA 100 mg/kg oral for 10 days; 2.5% DSS in drinking water 8 days; body weight before DSS = 100%; negative control 84.50±2.78%, normal 104.89±1.09%
Description: (§1) 6-week-old C57BL/6N male mice were purchased and pre-bred for one week, and then they were randomly divided into a total of 4 groups of 8 mice per group, and experiments were conducted as shown in Table 1 below.
Body weight loss is a representative symptom of inflammatory bowel disease (Scientific Reports volume 10, Article number: 3829 (2020)). The body weight of the mouse was measured once a day at the same time (10 am) using an electronic scale. The rate of change in body weight of each group was obtained by summing the body weight of 8 mice per group and then dividing by 8. The average body weight immediately before the start of administration of 2.5% DSS in drinking water was set as 100%, and the average body weight of each group was calculated every day to measure the rate of change in body weight. Significance was verified by performing a Mann-Whitney test for each group between the negative control group to which 2.5% DSS was administered in drinking water and the experimental group.

[2] = system: 2.5% DSS-induced inflammatory bowel disease animal model; experiment: Spleen weight and length (spleen ratio) in DSS-induced inflammatory bowel disease mice; type: in vivo, C57BL/6N male mice; conditions: 5-ASA 100 mg/kg oral, last day of administration
Description: as §1
A representative symptom that can occur in relation to inflammatory bowel disease includes splenitis. As such, when the spleen becomes inflamed, the size of the spleen is increased by its nature (Nutrients 2019, 11(11), 2776), and in fact, it is known that the spleen becomes enlarged in the model of IBD induced after DSS treatment (Biol. Pharm. Bull. 43, 450-457 (2020)). Therefore, in order to evaluate the level of inflammation in the spleen of mice according to the administration of the Isatidis folium extract of the present invention, the mouse of Example 1 was sacrificed on the last day of each administration, and then the weight and length of the spleen of each group compared to those of the negative control group were measured, and the spleen ratio is shown.

Nc1ccc(O)c(C(=O)O)c1 [5-ASA, 5-aminosalicylic acid]
rate of change in body weight [1]: 88.62±1.52%
decrease of weight and length of the spleen compared to negative control group [2]: 60.6%

Source: patent US20230414689A1, “COMPOSITION FOR PREVENTING, IMPROVING OR TREATING INFLAMMATORY BOWEL DISEASE, COMPRISING ISATIDIS FOLIUM EXTRACT” (MTHERA PHARMA CO., LTD, priority 2021, published 2023)
